# Experimental data as given in paper PMC12396409, “Screening and hit evaluation of a microbial metabolite library against the pathogenic Plasmodium falciparum and Toxoplasma gondii parasites” (International Journal for Parasitology: Drugs and Drug …, 2025).
# Where two headings read alike, the source gives them in different places. Where a SMILES comes first, the peptide text is derived from it. [ ]: non-standard residue; d: D form. Phe(ol) = N[C@H](CO)Cc1ccccc1; Aib = CC(C)(N)C(=O)O
# Columns and labels:
# [1] = test system: T. gondii RH strain (RH-Tub-eYFP) tachyzoites; assay: microbe, parasite or virus in culture; format: cell-based, Toxoplasma gondii; conditions: 72 h; for percent parasite growth at 2 µg/mL: Toxoplasma gondii
# [2] = test system: P. falciparum 3D7 parasites; assay: P. falciparum growth inhibition assay, 2-cycle (120 h treatment), delayed-death screen and dose-response; format: cell-based, Plasmodium falciparum; conditions: for 3) Fold change (72 h/120 h): growth at 72 h / growth at 120 h
# [3] = test system: P. falciparum 3D7 parasites; assay: P. falciparum growth inhibition assay, 1-cycle (72 h treatment), SYBR DNA staining (library screen at 2 μg/mL and dose-response); format: cell-based, Plasmodium falciparum
# [4] = library screen at 2 μg/mL, % growth, replicate 1
# [5] = library screen at 2 μg/mL, % growth, replicate 2
# [6] = library screen at 2 μg/mL, 120 h, % growth, replicate 1
# [7] = library screen at 2 μg/mL, 120 h, % growth, replicate 2
# [8] = library screen at 2 μg/mL, 72 h, % growth, replicate 1
# [9] = library screen at 2 μg/mL, 72 h, % growth, replicate 2
# [10] = T. gondii, screen at 2 μg/mL, replicate 1
# [11] = T. gondii, screen at 2 μg/mL, replicate 2
# [12] = P. falciparum, 120 h, screen at 2 μg/mL, replicate 1
# [13] = P. falciparum, 120 h, screen at 2 μg/mL, replicate 2
# [14] = P. falciparum, 72 h, screen at 2 μg/mL, replicate 1
# [15] = P. falciparum, 72 h, screen at 2 μg/mL, replicate 2
# [16] = T. gondii, parasite screen at 2 μg/mL, % growth, replicate 1
# [17] = T. gondii, parasite screen at 2 μg/mL, % growth, replicate 2
# [18] = P. falciparum 3D7, 120 h, parasite screen at 2 μg/mL, % growth, replicate 1
# [19] = P. falciparum 3D7, 120 h, parasite screen at 2 μg/mL, % growth, replicate 2
# [20] = P. falciparum 3D7, 72 h, parasite screen at 2 μg/mL, % growth, replicate 1
# [21] = P. falciparum 3D7, 72 h, parasite screen at 2 μg/mL, % growth, replicate 2
# [22] = T. gondii, parasite screen 2 μg/mL, % growth, replicate 1
# [23] = T. gondii, parasite screen 2 μg/mL, % growth, replicate 2
# [24] = P. falciparum, 120 h, parasite screen 2 μg/mL, % growth, replicate 1
# [25] = P. falciparum, 120 h, parasite screen 2 μg/mL, % growth, replicate 2
# [26] = P. falciparum, 72 h, parasite screen 2 μg/mL, % growth, replicate 1
# [27] = P. falciparum, 72 h, parasite screen 2 μg/mL, % growth, replicate 2
compound,measurement,setting,value
CC(/C=C/C1CC=CC(=O)O1)=C\C(C)C/C=C/C(C)=C/C(C)C(=O)C(C)C(O)C(C)C/C(C)=C/C(=O)O (stereo not drawn) [Anguinomycin A],Tg_72h_%Growth_Rep1,[1]; [4],87.81%
same,Tg_72h_%Growth_Rep2,[1]; [5],87.77%
same,Pf_120h_%Growth_Rep1,[2]; [6],145.35%
same,Pf_120h_%Growth_Rep2,[2]; [7],79.09%
same,Pf_72h_%Growth_Rep1,[3]; [8],77.34%
same,Pf_72h_%Growth_Rep2,[3]; [9],87.20%
CCCC(=O)N[C@H]1CCOC1=O [Butyryl-L-homoserine lactone],Tg_72h_%Growth_Rep1,[1]; [10],135.04%
same,Tg_72h_%Growth_Rep2,[1]; [11],102.04%
same,Pf_120h_%Growth_Rep1,[2]; [12],71.18%
same,Pf_120h_%Growth_Rep2,[2]; [13],93.77%
same,Pf_72h_%Growth_Rep1,[3]; [14],70.61%
same,Pf_72h_%Growth_Rep2,[3]; [15],82.94%
"CC[C@H]1OC(=O)C[C@@H](O)[C@H](C)[C@@H](O[C@@H]2O[C@H](C)[C@@H](O)[C@H](N(C)C)[C@H]2O)[C@@H](CCN2C[C@H](C)C[C@H](C)C2)C[C@@H](C)C(=O)/C=C/C(C)=C/[C@@H]1CO[C@@H]1O[C@H](C)[C@@H](O)[C@@H](OC)[C@H]1OC.O=P(O)(O)O [Tilmicosin phosphate, reference compound]",Tg_72h_%Growth_Rep1,[1]; [10],41.21%
same,Tg_72h_%Growth_Rep2,[1]; [11],38.33%
same,2) Growth (%) at 120 h,"[2]; P. falciparum, 2 μg/mL, 120 h",7.83%
same,Pf_120h_%Growth_Rep1,[2]; [12],10.28%
same,Pf_120h_%Growth_Rep2,[2]; [13],5.38%
same,3) Fold change (72 h/120 h),"[2]; P. falciparum, 2 μg/mL",2.8
same,1) Growth (%) at 72 h,"[3]; P. falciparum, 2 μg/mL, 72 h",22.07%
same,Mean,"[3]; P. falciparum, 72 h, 2 μg/mL, mean of both replicates, growth (% of control)",22.07
same,Pf_72h_%Growth_Rep1,[3]; [14],4.49%
same,Pf_72h_%Growth_Rep2,[3]; [15],39.64%
CC[C@H]1C[C@@H]2CC[C@@H](O2)[C@@H](C)C(=O)O[C@H](CC)C[C@H]2CC[C@H](O2)[C@H](C)C(=O)O[C@@H](C)C[C@@H]2CC[C@@H](O2)[C@@H](C)C(=O)O[C@H](CC)C[C@H]2CC[C@H](O2)[C@H](C)C(=O)O1 [Trinactin],Tg_72h_%Growth_Rep1,[1]; [10],2.98%
same,Tg_72h_%Growth_Rep2,[1]; [11],5.01%
same,Pf_120h_%Growth_Rep1,[2]; [12],16.44%
same,Pf_120h_%Growth_Rep2,[2]; [13],5.60%
same,Pf_72h_%Growth_Rep1,[3]; [14],3.59%
same,Pf_72h_%Growth_Rep2,[3]; [15],-0.10%
CC[C@H]1C[C@@H]2CC[C@@H](O2)[C@@H](C)C(=O)O[C@H](CC)C[C@H]2CC[C@H](O2)[C@H](C)C(=O)O[C@@H](CC)C[C@@H]2CC[C@@H](O2)[C@@H](C)C(=O)O[C@H](CC)C[C@H]2CC[C@H](O2)[C@H](C)C(=O)O1 [Tetranactin],Tg_72h_%Growth_Rep1,[1]; [10],5.41%
same,Tg_72h_%Growth_Rep2,[1]; [11],2.84%
same,Pf_120h_%Growth_Rep1,[2]; [12],29.81%
same,Pf_120h_%Growth_Rep2,[2]; [13],14.39%
same,Pf_72h_%Growth_Rep1,[3]; [14],6.09%
same,Pf_72h_%Growth_Rep2,[3]; [15],-9.23%
CC(=O)NC(C)(C)C(=O)N1CCC[C@H]1C(=O)NC(C)(C)C(=O)N[C@@H](C)C(=O)NC(C)(C)C(=O)N[C@@H](C)C(=O)N[C@@H](CCC(N)=O)C(=O)NC(C)(C)C(=O)N[C@H](C(=O)NC(C)(C)C(=O)NCC(=O)N[C@@H](CC(C)C)C(=O)NC(C)(C)C(=O)N1CCC[C@H]1C(=O)N[C@H](C(=O)NC(C)(C)C(=O)NC(C)(C)C(=O)N[C@@H](CCC(N)=O)C(=O)N[C@@H](CCC(N)=O)C(=O)N[C@H](CO)Cc1ccccc1)C(C)C)C(C)C [Alamethicin F50] (Ac-[Aib]P[Aib]A[Aib]AQ[Aib]V[Aib]GL[Aib]PV[Aib][Aib]QQ[Phe(ol)]),percent parasite growth at 2 µg/mL,"[1]; library screen at 2 μg/mL, % growth, replicate 1, read-out: Tg_72h_%Growth_Rep1",92.3%
same,percent parasite growth at 2 µg/mL,"[1]; library screen at 2 μg/mL, % growth, replicate 2, read-out: Tg_72h_%Growth_Rep2",87.6%
same,3) Fold change (72 h/120 h),"[2]; P. falciparum, 2 μg/mL",6.4
same,activity at 2 µg/mL,"[2]; Plasmodium falciparum, 3D7; P. falciparum, 2 μg/mL, 120 h; read-out: 2) Growth (%) at 120 h",3.45%
same,activity at 2 µg/mL,"[2]; Plasmodium falciparum, 3D7, library screen at 2 μg/mL, 120 h, % growth, replicate 1, read-out: Pf_120h_%Growth_Rep1",8.66%
same,activity at 2 µg/mL,"[2]; Plasmodium falciparum, 3D7, library screen at 2 μg/mL, 120 h, % growth, replicate 2, read-out: Pf_120h_%Growth_Rep2",-1.76%
same,activity at 2 µg/mL,"[3]; Plasmodium falciparum, 3D7; P. falciparum, 2 μg/mL, 72 h; read-out: 1) Growth (%) at 72 h",22%
same,activity at 2 µg/mL,"[3]; Plasmodium falciparum, 3D7, library screen at 2 μg/mL, 72 h, % growth, replicate 1, read-out: Pf_72h_%Growth_Rep1",21.9%
same,activity at 2 µg/mL,"[3]; Plasmodium falciparum, 3D7, library screen at 2 μg/mL, 72 h, % growth, replicate 2, read-out: Pf_72h_%Growth_Rep2",22.1%
"C=C1[C@@H](C)[C@H]2[C@H](Cc3ccccc3)NC(=O)[C@]23[C@H](OC(C)=O)[C@@H]2O[C@H]2[C@@](C)(O)C(=O)[C@@H](C)C/C=C\[C@H]3[C@@H]1O [Epoxycytochalasin D, 19,20-]",Tg_72h_%Growth_Rep1,[1]; [4],2.15%
same,Tg_72h_%Growth_Rep2,[1]; [5],1.47%
same,Pf_120h_%Growth_Rep1,[2]; [6],6.52%
same,Pf_120h_%Growth_Rep2,[2]; [7],-0.52%
same,Pf_72h_%Growth_Rep1,[3]; [8],5.59%
same,Pf_72h_%Growth_Rep2,[3]; [9],1.64%
CC(C)(O)[C@H]1O[C@H]2CC[C@@]3(C)[C@@](O)(CC[C@H]4Cc5c([nH]c6ccccc56)[C@@]43C)[C@]23O[C@@H]3[C@@H]1O [Terpendole I],Tg_72h_%Growth_Rep1,[1]; [10],89.20%
same,Tg_72h_%Growth_Rep2,[1]; [11],95.24%
same,Pf_120h_%Growth_Rep1,[2]; [12],141.22%
same,Pf_120h_%Growth_Rep2,[2]; [13],87.55%
same,Pf_72h_%Growth_Rep1,[3]; [14],66.72%
same,Pf_72h_%Growth_Rep2,[3]; [15],80.63%
CC[C@H](C)C(=O)O[C@H]1CCC=C2C=C[C@H](C)[C@H](CC[C@@H]3C[C@@H](O)CC(=O)O3)[C@H]21 [BIA-M1209],Tg_72h_%Growth_Rep1,[1]; [16],113.16%
same,Tg_72h_%Growth_Rep2,[1]; [17],83.90%
same,Pf_120h_%Growth_Rep1,[2]; [18],88.69%
same,Pf_120h_%Growth_Rep2,[2]; [19],112.58%
same,Pf_72h_%Growth_Rep1,[3]; [20],86.39%
same,Pf_72h_%Growth_Rep2,[3]; [21],121.47%
O=c1c2cccn2c(=O)c2cccn12 [Pyrocoll],Tg_72h_%Growth_Rep1,[1]; [22],94.37%
same,Tg_72h_%Growth_Rep2,[1]; [23],83.97%
same,Pf_120h_%Growth_Rep1,[2]; [24],85.16%
same,Pf_120h_%Growth_Rep2,[2]; [25],138.60%
same,Pf_72h_%Growth_Rep1,[3]; [26],84.60%
same,Pf_72h_%Growth_Rep2,[3]; [27],82.90%
Oc1cc(O)cc(O)c1 [BIA-P1379],Tg_72h_%Growth_Rep1,[1]; [16],123.57%
same,Tg_72h_%Growth_Rep2,[1]; [17],91.75%
same,Pf_120h_%Growth_Rep1,[2]; [18],15.44%
same,Pf_120h_%Growth_Rep2,[2]; [19],11.00%
same,Pf_72h_%Growth_Rep1,[3]; [20],72.55%
same,Pf_72h_%Growth_Rep2,[3]; [21],29.88%
CC[C@H]1CCC[C@H](O)[C@@H](C)C(=O)C2=C[C@@H]3[C@@H](C=C(C)[C@@H]4C[C@@H](O)C[C@@H]34)[C@@H]2CC(=O)O1 [Spinosyn D aglycone],Tg_72h_%Growth_Rep1,[1]; [22],115.34%
same,Tg_72h_%Growth_Rep2,[1]; [23],86.84%
same,Pf_120h_%Growth_Rep1,[2]; [24],82.24%
same,Pf_120h_%Growth_Rep2,[2]; [25],90.76%
same,IC50,"[3]; 3D7, 72 h treatment, mean ± S.D., n ≥ 3, read-out: IC50 (μM), P. falciparum",> 1 µM
same,Pf_72h_%Growth_Rep1,[3]; [26],82.67%
same,Pf_72h_%Growth_Rep2,[3]; [27],106.85%
same,Screen (P. falciparum),"[3]; library screen at 2 μg/mL, 3D7, 72 h, DD from the 120 h timepoint",I
CC1=C[C@H]2O[C@@H]3[C@H](O)[C@@H](O)[C@](C)([C@@]2(CO)[C@H](O)C1=O)[C@]31CO1 [BIA-N1920],Tg_72h_%Growth_Rep1,[1]; [16],0.21%
same,Tg_72h_%Growth_Rep2,[1]; [17],0.91%
same,Pf_120h_%Growth_Rep1,[2]; [18],18.13%
same,Pf_120h_%Growth_Rep2,[2]; [19],5.74%
same,Pf_72h_%Growth_Rep1,[3]; [20],4.51%
same,Pf_72h_%Growth_Rep2,[3]; [21],-2.70%
